Measurements from US6319902A, “Peptide derivatives having thiazolyl-alanine residue” (Shionogi & Co., Ltd., priority 1999, dated 2001).

Tests used:
Format in all cases: in vivo
[1] = system: Reserpine-induced hypothermia mice; test: Anti-reserpine action after intravenous and intracerebroventicular administration of test compounds; conditions: for Dose which can increase the average of body temperatures at 1° C. for 180 min in reserpine-induced hypothermia mice, administered intracerebroventicularly: intracerebroventicular, calculated from AUC for 180 min after 0.21 μmol/kg
Method: Anti Recerpine Action After Intravenous and Intracerebroventicular Administration of Test Compounds
Recerpine-induced hypothermia mice (ddY, male) were prepared by the administration of reserpine (3 mg/kg) at 18 hours before test compounds administration. Mice with their body temperature about 25° C. were used in the experiment. Test compounds were solubilized in saline and 0.1 ml (1 μmol/kg) of them were administered intravenously and 0.005 ml (0.21 μmol/kg) of them were administered intracerebroventicularly, respectively. After the administration, rectal temperature was measured at 30, 60, 120, and 180 min. The area under curve (AUC) of the body temperature-time profile was calculated by the general trapezoidal method. In the control experiment, vehicle (saline) was administered to mice intravenously or intracerebroventicularly and the rectal temperature was measured by the same protocol. The effective dose, which can increase the average of body temperatures at 1° C. for 180 min in reserpine-induced hypothermia mice after intravenous or intracerebroventicular administration of the test compounds, is calculated by the following equation: [formula]
Effective dose: Dose which can increase the average of body temperatures at 1° C. for 180 min in reserpine-induced hypothermia mice.
AUC (test compounds): The area under curve (AUC) of the body temperature-time profile for 180 min after intravenous or intracerebroventicular administration of test, compounds was calculated by the general trapezoidal method.
AUC (vehicle): The area under curve (AUC) of the body temperature-time profile for 180 min after intravenous or intracerebroventicular administration of saline was calculated by the general trapezoidal method.

[2] = Change of blood glucose levels after administration of the test compounds to rats; conditions: for blood glucose level as a percentage compared to the baseline level (vehicle-treated rats = 100%): 50 μmol/kg intravenously
[3] = system: Reserpine-induced hypothermia mice; test: Anti-reserpine action after oral administration of test compounds; conditions: calculated from AUC of body temperature-time profile for 420 min after 10 μmol/kg
Method: Anti-recerpine Action After Oral Administration of Test Compounds
Reserpine-induced hypothemia mice (ddY, male, body weight: 30 to 40 g) were prepared by the subcutaneous administration of reserpine in back side of the […] (3 mg/kg) at 18 hours before test compounds administration. Mice with their body temperature about 25° C. were used in the experiment. Test compounds were solubilized in saline and 0.2 ml (10 μmol/kg) of them were administered by sonde for oral administration. After the administration, rectal temperature was measured at, 30, 60, 120, 180, 240, 300, and […]. The area under curve (AUC) of the body temperature-time profile was calculated by the general trapezoidal method. In the control experiment, vehicle (saline) was administered to mice and the rectal temperature was measured by the same protocol. The effective dose, which can increase the average of body temperature at 1° C. for 420 min in reserpine-induced hypothermia mice after oral administration of the test compounds, is calculated by the following equation: [formula]
Effective dose: Dose which can increase the average of body temperatures at 1° C. for 420 min in reserpine-induced hypothermia mice.
AUC (test compounds): The area under curve (AUC) of the body temperature-time profile for 420 min after oral administration of test compounds was calculated by the general trapezoidal method. […]

Row | SMILES | Dose which can increase the average of body temperatures at 1° C. for 180 min in reserpine-induced hypothermia mice, administered intracerebroventicularly [1] [µmol/kg] | blood glucose level as a percentage compared to the baseline level (vehicle-treated rats = 100%) ([2]; Time 0 min) [%] | blood glucose level as a percentage compared to the baseline level (vehicle-treated rats = 100%) ([2]; Time 5 min) [%] | blood glucose level as a percentage compared to the baseline level (vehicle-treated rats = 100%) ([2]; Time 15 min) [%] | blood glucose level as a percentage compared to the baseline level (vehicle-treated rats = 100%) ([2]; Time 30 min) [%] | blood glucose level as a percentage compared to the baseline level (vehicle-treated rats = 100%) ([2]; Time 60 min) [%] | blood glucose level as a percentage compared to the baseline level (vehicle-treated rats = 100%) ([2]; Time 120 min) [%] | blood glucose level as a percentage compared to the baseline level (vehicle-treated rats = 100%) ([2]; Time 180 min) [%] | blood glucose level as a percentage compared to the baseline level (vehicle-treated rats = 100%) ([2]; Time 240 min) [%] | blood glucose level as a percentage compared to the baseline level (vehicle-treated rats = 100%) ([2]; Time 300 min) [%] | blood glucose level as a percentage compared to the baseline level (vehicle-treated rats = 100%) ([2]; Time 360 min) [%] | blood glucose level as a percentage compared to the baseline level (vehicle-treated rats = 100%) ([2]; Time 420 min) [%] | blood glucose level as a percentage compared to the baseline level (vehicle-treated rats = 100%) ([2]; Time 480 min) [%] | Dose which can increase the average of body temperatures at 1° C. for 420 min in reserpine-induced hypothermia mice by oral [3] [µmol/kg] | Dose which can increase the average of body temperatures at 1° C. for 180 min in reserpine-induced hypothermia mice, administered intravenously ([1]; intravenous, calculated from AUC for 180 min after 1 μmol/kg) [µmol/kg] | acute rise of the blood glucose level and fall by the rebound after administration ([2]; result in words)
1 | C[C@H]1OC(=O)N[C@H]1C(=O)N[C@@H](Cc1cscn1)C(=O)N1CCC[C@H]1C(N)=O (mixture of isomers) [Compound I-10, cis-L-5-methyl-2-oxo-oxazolidine-4-yl-carbonyl-3-(4-thiazolyl)-L-alanyl-L-prolineamide] | 0.025 | 107.7 | 119.9 | 104.3 | 109.1 | 112.1 | 126.5 | 105.3 | 110.9 | 104.0 | 100.4 | 102.6 | 111.8 |  |  | 
2 | NC(=O)[C@@H]1CCCN1C(=O)[C@H](Cc1cnc[nH]1)NC(=O)[C@@H]1CCC(=O)N1 [TRH, L-pyroglutamyl-L-histidyl-L-prolineamide] | 0.033 | 116.3 | 114.6 | 123.3 | 137.9 | 153.5 | 139.1 | 119.1 | 112.6 | 113.2 | 103.5 | 102.6 | 97.1 | 42.68 | 9.84 | acutely raises up the blood glucose level
